Source: patent publication US12384789B2, “Compounds for treating Huntington's disease” (PTC Therapeutics, Inc., priority 2017, dated 2025)

Each molecule was assayed on Endogenous Huntingtin Protein (assay: Endogenous Huntingtin Protein Assay (Meso Scale Discovery ELISA-based electrochemiluminescence)). Conditions: MSD electrochemiluminescence, Table 1.
Format: cell-based
Experimental: Compounds of Formula (I) were tested using the Meso Scale Discovery (MSD) Assay provided in International Application No. PCT/US2016/066042, filed on Dec. 11, 2016 and claiming priority to United States Provisional Application U.S. 62/265,652 filed on Dec. 10, 2015, the entire contents of which are incorporated herein by reference.
The Endogenous Huntingtin Protein assay used in Example 1 was developed using the ELISA-based MSD electrochemiluminescence assay platform.
Endogenous Huntingtin Protein Assay
Meso Scale Discovery (MSD) 96-well or 384-well plates were coated overnight at 4° C. with MW1 (expanded polyglutamine) or MAB2166 monoclonal antibody (for capture) at a concentration of 1 μg/mL in PBS (30 μL per well). Plates were then washed three times with 300 μL wash buffer (0.05% Tween-20 in PBS) and blocked (100 μL blocking buffer; 5% BSA in PBS) for 4-5 hours at room temperature with rotational shaking and then washed three times with wash buffer.
Samples (25 μL) were transferred to the antibody-coated MSD plate and incubated overnight at 4° C. After removal of the lysates, the plate was washed three times with wash buffer, and 25 μL of #5656S (Cell signaling; rabbit monoclonal) secondary antibody (diluted to 0.25 μg/mL in 0.05% Tween-20 in blocking buffer) was added to each well and incubated with shaking for 1 Hour at room temperature. Following incubation with the secondary antibody, the wells were rinsed with wash buffer after which 25 μL of goat anti-rabbit SULFO TAG secondary detection antibody (required aspect of the MSD system) (diluted to 0.25 μg/mL in 0.05% Tween-20 in blocking buffer) was added to each well and incubated with shaking for 1 hour at room temperature. After rinsing three times with wash buffer, 150 μL of read buffer T with surfactant (MSD) were added to each empty well, and the plate was imaged on a SI 6000 imager (MSD) according to manufacturers' instructions provided for 96- or 384-well plates.

Row | SMILES | IC50 [µM]
1 | Cc1cc(-c2ccc3nc(C4CCNCC4)ncc3c2)cc2cn(C)nc12 [Compound 23, 6-(2,7-dimethyl-2H-indazol-5-yl)-2-(piperidin-4-yl)quinazoline] | 0.1 to 0.5
2 | Cn1cc2cc(-c3ccc4cc(C5=CCNCC5)cc(F)c4n3)cc(F)c2n1 [Compound 166, 8-fluoro-2-(7-fluoro-2-methyl-2H-indazol-5-yl)-6-(1,2,3,6-tetrahydropyridin-4-yl)quinoline] | ≤ 0.1
3 | Cc1cc(-c2cc(F)c3cc(C4CCNCC4)nnc3c2)cc2cn(C)nc12 [Compound 73, 7-(2,7-dimethyl-2H-indazol-5-yl)-5-fluoro-3-(piperidin-4-yl)cinnoline] | ≤ 0.1
4 | Cc1cn2cc(-c3nnc4cc(C5CCNCC5)ccc4n3)cc(F)c2n1 [Compound 43, 3-(8-fluoro-2-methylimidazo[1,2-a]pyridin-6-yl)-7-(piperidin-4-yl)-1,2,4-benzotriazine] | ≤ 0.1
5 | CCc1cc(-c2cc(F)c3cc(C4CCN(C)CC4)nnc3c2)nn2cc(C)nc12 [Compound 122, 7-(8-ethyl-2-methylimidazo[1,2-b]pyridazin-6-yl)-5-fluoro-3-(1-methylpiperidin-4-yl)cinnoline] | ≤ 0.1
6 | CCc1cc(-c2cc(F)c3cc(C4CCN(CC)CC4)nnc3c2)nc2cn(C)nc12 [Compound 174, 7-(7-ethyl-2-methyl-2H-pyrazolo[4,3-b]pyridin-5-yl)-3-(1-ethylpiperidin-4-yl)-5-fluorocinnoline] | ≤ 0.1

Further lines, results first:

Row | IC50 [µM] | SMILES
7 | ≤ 0.1 | Cn1cc2cc(-c3cc(F)c4nc(C5CCNCC5)ncc4c3)cc(F)c2n1 [Compound 36, 8-fluoro-6-(7-fluoro-2-methyl-2H-indazol-5-yl)-2-(piperidin-4-yl)quinazoline]
8 | ≤ 0.1 | Cc1cn2nc(-c3cc(F)c4cc(C5CCNCC5)nnc4c3)cc(OCCCn3cnc4ccccc43)c2n1 [Compound 150, 7-{8-[3-(1H-benzimidazol-1-yl)propoxy]-2-methylimidazo[1,2-b]pyridazin-6-yl}-5-fluoro-3-(piperidin-4-yl)cinnoline]
9 | ≤ 0.1 | Cc1cn2nc(-c3cc(F)c4cc(C5CCN(CCCn6cccn6)CC5)nnc4c3)cc(C)c2n1 [Compound 160, 7-(2,8-dimethylimidazo[1,2-b]pyridazin-6-yl)-5-fluoro-3-{1-[3-(1H-pyrazol-1-yl)propyl]piperidin-4-yl}cinnoline]
10 | ≤ 0.1 | CCN1CCC(c2cc3c(F)cc(-c4cc(Oc5ccccc5)c5nc(C)cn5n4)cc3nn2)CC1 [Compound 200, 3-(1-ethylpiperidin-4-yl)-5-fluoro-7-(2-methyl-8-phenoxyimidazo[1,2-b]pyridazin-6-yl)cinnoline]
11 | ≤ 0.1 | CCN1CCC(c2cc3c(F)cc(-c4cc(OC)c5nc(C)cn5n4)cc3nn2)CC1 [Compound 111, 3-(1-ethylpiperidin-4-yl)-5-fluoro-7-(8-methoxy-2-methylimidazo[1,2-b]pyridazin-6-yl)cinnoline]
12 | ≤ 0.1 | CCN1CCC(c2ccc3cc(-c4cc(C)c5nc(C)cn5n4)cc(F)c3n2)CC1 [Compound 48, 6-(2,8-dimethylimidazo[1,2-b]pyridazin-6-yl)-2-(1-ethylpiperidin-4-yl)-8-fluoroquinoline]
13 | ≤ 0.1 | Cc1cn2nc(-c3cc(F)c4cc(N5CCC(N(C)C)CC5)nnc4c3)cc(C)c2n1 [Compound 88, 1-[7-(2,8-dimethylimidazo[1,2-b]pyridazin-6-yl)-5-fluorocinnolin-3-yl]-N,N-dimethylpiperidin-4-amine]
14 | ≤ 0.1 | Cc1cc(-c2cc(F)c3cc(C4CCNCC4)nnc3c2)nc2cn(C)nc12 [Compound 162, 7-(2,7-dimethyl-2H-pyrazolo[4,3-b]pyridin-5-yl)-5-fluoro-3-(piperidin-4-yl)cinnoline]
15 | ≤ 0.1 | Cn1cc2cc(-c3cc(F)c4cc(C5CCNCC5)nnc4c3)ccc2n1 [Compound 95, 5-fluoro-7-(2-methyl-2H-indazol-5-yl)-3-(piperidin-4-yl)cinnoline]
